Results as given in PMC4942689, “Deciphering the function of the CNGB1b subunit in olfactory CNG channels” (Scientific Reports, 2016).

Assays:
CNGA2TM:A4 = molecular target: T1, CNGA2TM:A4 (Rattus norvegicus, UniProt Q00195+Q64359, T539M); assay: Ligand binding, confocal patch-clamp fluorometry; parameters: key: +: ligand binding to the respective modulatory subunits was either observed or not; −: ligand binding to the respective modulatory subunits was either observed or not; conditions: 10 μM; construct CNGA2TM:A4
T1 construct: expressed in transfected cells; host or cells: Xenopus laevis oocytes (cRNA injection), excised patches
Excerpt: (§1) The channels to be studied were expressed in Xenopus oocytes. We first tested the subunit composition in our channels when coexpressing different combinations of subunits by single-channel recordings. For CNGA2:A4, CNGA2:B1b and CNGA2:A4:B1b channels we exclusively obtained the specific and easily distinguishable single-channel activity reported earlier when injecting respective amounts of RNA[7][13]. We therefore assumed that the channels formed had always the expected subunit composition. The specific binding of cyclic nucleotides and the activation of the CNG channels were measured in parallel by means of confocal patch-clamp fluorometry in excised patches, using fluorescent cyclic nucleotide derivatives. The method has been described previously.
The ligand binding was measured in macropatches by patch-clamp fluorometry[41][42] combined with confocal microscopy. […] Recordings were performed with an LSM 510 or 710 confocal microscope (Zeiss, Jena, Germany) and were triggered by the ISO3 software (MFK, Niedernhausen, Germany). To distinguish between the fluorescence of the unbound ligands from that of the bound ligands, a second dye, DY647 (Dyomics, Jena, Germany), was added to the bath solution. The 543-nm and 633-nm lines of a He-Ne laser were used to excite fcAMP/fcGMP and DY647, respectively. The method of confocal patch-clamp fluorometry has been described in detail previously.

CNGA2TM:A4RE:B1bRE = molecular target: T2, CNGA2TM:A4RE:B1bRE (Rattus norvegicus, UniProt A0A8I5ZN27+Q00195+Q64359, R1106E/R430E/T539M); assay: Ligand binding, confocal patch-clamp fluorometry; parameters: key: +: ligand binding to the respective modulatory subunits was either observed or not; −: ligand binding to the respective modulatory subunits was either observed or not; conditions: 10 μM; construct CNGA2TM:A4RE:B1bRE
T2 construct: expressed in transfected cells; host or cells: Xenopus laevis oocytes (cRNA injection), excised inside-out patches
Excerpt: as §1
To verify the hypothesis that the CNGB1b subunit in CNGA2:A4:B1b channels binds cyclic nucleotides, we coexpressed CNGB1b with CNGA4RE and either CNGA2RE or CNGA2TM and measured ligand binding in the presence of 10 μM fcGMP. […]
The ligand binding was measured in macropatches by patch-clamp fluorometry[41][42] combined with confocal microscopy. […] To distinguish between the fluorescence of the unbound ligands from that of the bound ligands, a second dye, DY647 (Dyomics, Jena, Germany), was added to the bath solution. […]

[1] = molecular target: T3, homotetrameric CNGA2 channels (Rattus norvegicus, UniProt Q00195); assay: Concentration-activation relationship, inside-out patch-clamp, Xenopus oocytes; type: biochemical
T3 construct: expressed in transfected cells; host or cells: Xenopus laevis oocytes (cRNA injection), excised inside-out patches
Procedure: Patch-clamp experiments were performed using an Axopatch 200B amplifier (Molecular Devices LLC, CA, U.S.A.) in the inside-out configuration. The patch pipettes for recording of macroscopic currents were pulled from borosilicate glass tubing (outer diameter 2.0 mm, inner diameter 1.0 mm; Hilgenberg GmbH, Germany). […] The patches were formed as pushed inside-out patches. […] Cyclic nucleotide concentration jumps were performed using a double-barreled glass pipette mounted on a piezo-driven device. Intracellular (bath) and extracellular (pipette) solutions contained (mM) 150 KCl, 1 EGTA, 5 Hepes, pH = 7.4 with KOH. […] Currents in the absence of the cyclic nucleotide were subtracted. All patches included in this study were first tested for channel expression in the presence of a saturating ligand concentration. Only patches with large current, i.e. a large number of channels, were included in our statistics. The currents were measured at +10 mV or, if mentioned, at +100 mV. Fits of equations to data points were performed with the 8.1G® software (OriginLab Corporation, Northampton, U.S.A.). Concentration-activation relationships were obtained by relating the actual current amplitude, I, to the maximum current amplitude elicited by a saturating concentration of ligand, Imax, and plotting this ratio as function of the ligand concentration, x. […]

CNGA2:A4:B1b channels = molecular target: T4, CNGA2:A4:B1b channels (Rattus norvegicus, UniProt A0A8I5ZN27+Q00195+Q64359); assay: Concentration-activation relationship, inside-out patch-clamp; type: biochemical; conditions: CNGA2:A4:B1b
T4 construct: expressed in transfected cells; host or cells: Xenopus laevis oocytes (cRNA injection 2:1:1), excised inside-out patches
Procedure: Patch-clamp experiments were performed using an Axopatch 200B amplifier (Molecular Devices LLC, CA, U.S.A.) in the inside-out configuration. The patch pipettes for recording of macroscopic currents were pulled from borosilicate glass tubing (outer diameter 2.0 mm, inner diameter 1.0 mm; Hilgenberg GmbH, Germany). The initial resistance was 0.7–1.3 MΩ. The patches were formed as pushed inside-out patches. […] Cyclic nucleotide concentration jumps were performed using a double-barreled glass pipette mounted on a piezo-driven device. Intracellular (bath) and extracellular (pipette) solutions contained (mM) 150 KCl, 1 EGTA, 5 Hepes, pH = 7.4 with KOH. […] Currents in the absence of the cyclic nucleotide were subtracted. All patches included in this study were first tested for channel expression in the presence of a saturating ligand concentration. Only patches with large current, i.e. a large number of channels, were included in our statistics. The currents were measured at +10 mV or, if mentioned, at +100 mV.
Fits of equations to data points were performed with the 8.1G® software (OriginLab Corporation, Northampton, U.S.A.). Concentration-activation relationships were obtained by relating the actual current amplitude, I, to the maximum current amplitude elicited by a saturating concentration of ligand, Imax, and plotting this ratio as function of the ligand concentration, x. The concentration-activation data were fitted using the Hill equation
where EC50 is the ligand concentration of half maximum effect and H the Hill coefficient.
In fHcAMP the dye DY547 is coupled to
(b) Concentration-activation relationships of the CNGA2:A4:B1b channels activated by either
The currents were recorded […]

T2 sequence (Q00195 whole entry T539M): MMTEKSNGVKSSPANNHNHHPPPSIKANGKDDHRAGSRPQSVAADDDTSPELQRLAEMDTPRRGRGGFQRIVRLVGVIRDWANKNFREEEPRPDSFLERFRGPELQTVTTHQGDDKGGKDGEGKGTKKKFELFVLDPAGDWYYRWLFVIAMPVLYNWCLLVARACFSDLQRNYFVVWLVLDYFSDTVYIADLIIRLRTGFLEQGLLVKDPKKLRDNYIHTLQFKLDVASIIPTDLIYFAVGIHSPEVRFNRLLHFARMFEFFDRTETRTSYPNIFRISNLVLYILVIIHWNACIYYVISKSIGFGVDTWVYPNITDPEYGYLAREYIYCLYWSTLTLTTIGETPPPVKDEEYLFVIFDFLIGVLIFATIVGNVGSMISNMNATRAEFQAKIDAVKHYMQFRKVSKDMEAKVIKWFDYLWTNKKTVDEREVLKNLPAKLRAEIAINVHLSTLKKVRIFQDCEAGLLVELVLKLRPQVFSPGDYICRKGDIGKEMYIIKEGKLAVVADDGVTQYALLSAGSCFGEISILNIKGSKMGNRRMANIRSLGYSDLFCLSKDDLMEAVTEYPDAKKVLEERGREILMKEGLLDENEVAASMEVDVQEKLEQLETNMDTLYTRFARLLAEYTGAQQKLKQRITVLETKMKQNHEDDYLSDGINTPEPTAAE
T2 sequence (Q64359 whole entry R430E): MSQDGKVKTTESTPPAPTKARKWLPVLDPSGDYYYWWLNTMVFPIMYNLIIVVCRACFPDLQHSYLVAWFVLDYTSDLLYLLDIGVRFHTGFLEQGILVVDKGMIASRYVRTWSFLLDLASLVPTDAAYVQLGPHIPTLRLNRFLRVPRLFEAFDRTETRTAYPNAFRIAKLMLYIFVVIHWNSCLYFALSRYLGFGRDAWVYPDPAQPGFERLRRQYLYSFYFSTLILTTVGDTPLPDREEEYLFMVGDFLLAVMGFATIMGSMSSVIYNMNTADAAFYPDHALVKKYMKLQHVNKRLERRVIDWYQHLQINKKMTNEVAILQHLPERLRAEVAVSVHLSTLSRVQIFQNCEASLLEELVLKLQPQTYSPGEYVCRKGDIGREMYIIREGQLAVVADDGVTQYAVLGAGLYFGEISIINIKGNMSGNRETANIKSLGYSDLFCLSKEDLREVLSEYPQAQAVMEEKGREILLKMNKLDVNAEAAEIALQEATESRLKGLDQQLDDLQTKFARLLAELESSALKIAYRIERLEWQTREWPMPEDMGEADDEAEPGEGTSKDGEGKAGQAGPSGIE
T2 sequence (A0A8I5ZN27 1-858 isoform A0A8I5ZN27-2 R657E): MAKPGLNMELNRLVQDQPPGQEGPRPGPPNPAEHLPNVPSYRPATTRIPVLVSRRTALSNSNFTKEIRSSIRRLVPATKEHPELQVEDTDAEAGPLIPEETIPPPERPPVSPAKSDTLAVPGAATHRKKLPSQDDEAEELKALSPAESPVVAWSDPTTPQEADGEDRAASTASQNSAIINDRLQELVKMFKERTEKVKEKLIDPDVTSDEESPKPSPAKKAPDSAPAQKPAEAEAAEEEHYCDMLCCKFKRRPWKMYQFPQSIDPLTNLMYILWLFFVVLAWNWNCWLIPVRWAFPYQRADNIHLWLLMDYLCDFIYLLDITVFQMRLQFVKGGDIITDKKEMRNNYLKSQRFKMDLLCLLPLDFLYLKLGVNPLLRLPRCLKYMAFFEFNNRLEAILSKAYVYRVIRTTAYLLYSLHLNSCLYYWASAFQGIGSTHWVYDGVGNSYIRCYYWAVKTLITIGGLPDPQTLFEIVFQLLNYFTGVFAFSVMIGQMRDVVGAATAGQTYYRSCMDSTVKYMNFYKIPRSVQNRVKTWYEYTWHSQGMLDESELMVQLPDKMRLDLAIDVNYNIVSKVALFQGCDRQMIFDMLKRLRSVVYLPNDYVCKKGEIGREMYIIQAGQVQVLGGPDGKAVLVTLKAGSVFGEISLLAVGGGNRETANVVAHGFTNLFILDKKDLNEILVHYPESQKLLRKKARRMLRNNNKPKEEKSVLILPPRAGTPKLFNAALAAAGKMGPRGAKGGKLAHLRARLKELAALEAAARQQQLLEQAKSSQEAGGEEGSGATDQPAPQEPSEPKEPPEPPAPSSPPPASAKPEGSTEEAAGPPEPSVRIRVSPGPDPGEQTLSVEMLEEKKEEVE
T4 sequence (Q00195 whole entry): as the sequence (Q00195 whole entry T539M) above, with M539T counted along it
T4 sequence (Q64359 whole entry): as the sequence (Q64359 whole entry R430E) above, with E430R counted along it
T4 sequence (A0A8I5ZN27 1-858 isoform A0A8I5ZN27-2): as the sequence (A0A8I5ZN27 1-858 isoform A0A8I5ZN27-2 R657E) above, with E657R counted along it
T3 sequence (Q00195 whole entry): as the sequence (Q00195 whole entry T539M) above, with M539T counted along it
T1 sequence (Q00195 whole entry T539M): as the sequence (Q00195 whole entry T539M) above
T1 sequence (Q64359 whole entry): as the sequence (Q64359 whole entry R430E) above, with E430R counted along it

Row | Compound | Ligand binding to CNGA4 (CNGA2TM:A4) | Ligand binding to CNGA4 (CNGA2TM:A4RE:B1bRE) | Ligand binding to CNGB1b (CNGA2TM:A4RE:B1bRE) | H ([1]; Hill coefficient, Equation 1) | EC50 ([1]; fit with Equation 1) | EC50 (CNGA2:A4:B1b channels; Equation 1) | H (CNGA2:A4:B1b channels; Hill coefficient)
1 | 8-[DY-547]-AET-cGMP [fcGMP] | + | − | − |  |  |  | 
2 | Nc1nc2c(ncn2[C@@H]2O[C@@H]3COP(=O)(O)O[C@H]3[C@H]2O)c(=O)[nH]1 [cGMP] |  |  |  | 1.9 | 1740 nM | 760 nM | 2.0
